The source of these data is patent US5089516A, “1-phenyl-3,5-pyrazolidinedione hydroxystyrene compounds which have tyrosine kinase inhibiting activity” (Kanegafuchi Kagaku Kogyo Kabushiki Kaisha, priority 1987, dated 1992).

One test addresses T1, 5-lipoxygenase (Cavia porcellus, UniProt A0A286X958).
T1 construct: The cytosol fraction was used as an enzyme solution; from tissue; host or cells: peritoneal exudate cells of casein-injected Hartley guinea pigs, 105,000×g cytosol
T1 sequence (A0A286X958 1-674): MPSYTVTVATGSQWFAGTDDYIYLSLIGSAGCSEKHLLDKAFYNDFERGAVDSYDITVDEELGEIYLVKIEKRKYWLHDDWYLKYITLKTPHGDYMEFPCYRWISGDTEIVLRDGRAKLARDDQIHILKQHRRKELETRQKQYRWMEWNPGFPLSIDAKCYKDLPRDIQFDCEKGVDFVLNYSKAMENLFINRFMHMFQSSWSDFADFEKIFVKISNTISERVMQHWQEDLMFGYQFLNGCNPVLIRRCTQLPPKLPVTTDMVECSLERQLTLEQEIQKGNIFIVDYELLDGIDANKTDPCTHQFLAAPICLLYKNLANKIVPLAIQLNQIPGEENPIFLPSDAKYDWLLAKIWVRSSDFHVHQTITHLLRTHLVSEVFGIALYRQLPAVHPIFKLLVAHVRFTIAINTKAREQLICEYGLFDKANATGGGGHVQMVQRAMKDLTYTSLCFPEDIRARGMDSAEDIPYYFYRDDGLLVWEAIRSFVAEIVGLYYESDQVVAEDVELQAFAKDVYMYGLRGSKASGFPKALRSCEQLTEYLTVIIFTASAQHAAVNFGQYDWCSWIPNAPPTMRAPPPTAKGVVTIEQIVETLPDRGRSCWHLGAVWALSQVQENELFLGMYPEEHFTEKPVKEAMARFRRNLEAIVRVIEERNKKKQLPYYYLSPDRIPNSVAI
Kind of test: 5-Lipoxygenase inhibiting activity (5-HETE formation, cytosol of peritoneal exudate cells). In kind it is biochemical, Hartley guinea pigs. As to conditions: read-out: Inhibition rate (5-lipoxygenase); for inhibition at 10 µM: 10 μM in the reaction mixture; for inhibition at 1 µM: 1 μM in the reaction mixture. The protocol:
5-Lipoxygenase inhibiting activity of the compound of the present invention was measured referring to the method for measuring 5-lipoxygenase activity by K. Ochi et al. [Journal of Biological Chemistry (J. Biol. Chem.), 258, 5754(1983)].
Sterilized 2% solution of casein (pH 7) was injected intraperitoneally into Hartley guinea pigs in a volume of 5 ml/100 g body weight. Fifteen hours later, the guinea pigs were killed and peritoneal exudate cells thereof were collected. After the exudate cells were washed with 17 mM Tris--HCl buffer (pH 7.4) containing 0.74% ammonium to remove contaminating erythrocytes in the exudate cells suspension, the cells were washed with buffer A (130 mM NaCl, 1 mM EDTA, 25 mM sodium phosphate, pH 7.4). The washed cells were suspended in buffer B (50 mM sodium phosphate, 1 mM EDTA, 0.1% gelatin, pH 7.4) at 10^8 cells/ml, sonicated and centrifuged at 10,000×g for 20 minutes under the cold atmosphere. The obtained supernatant was further centrifuged at 105,000×g for 60 minutes under the cold atmosphere. The cytosol fraction was used as an enzyme solution.
The enzyme solution was preincubated with the […] in the presence of 1 mM CaCl2, 1 mM reduced gluthathione (GSH) and 2 mM ATP at 30° C. for 5 minutes in 0.2 ml of a reaction mixture and the mixture was further incubated at 30° C. for 5 minutes by adding 20 μM [1-^14 C] arachidonic acid (0.1 μCi) thereto. The test compounds were dissolved in ethanol to give the reaction mixture containing 2% ethanol as a final concentration. Only ethanol was added to the reaction mixture as a control group.
To the reaction mixture were added 2.5 ml of a mixture of chloroform and methanol (2/1 by volume) and 0.3 ml of 40 mM citric acid to stop the reaction. The mixture was vortexed and an organic solvent layer was evaporated to dryness under nitrogen gas. After dissolving the dried organic layer in a fixed amount of the mixture of chloroform and methanol (2/1 by volume), it was spotted on a silica gel plate (Kiesel gel 60F254, E. Merck) and products were separated using a developer (the organic solvent layer of ethyl acetate/water/2,2,4-trimethylpentane/acetic acid=11/10/5/2 by volume). After the radioactive position of the product was determined by means of a radioautography, an area equivalent to that of 5-hydroxyeicosatetraenoic acid (hereinafter referred to as "5-HETE") was scraped off, and then its radioactivity was measured with a liquid scintillation counter. With regarding the amount of the generated 5-HETE as the 5-lipoxygenase inhibiting activity, the inhibition rate (%) in comparison with the control group was calculated according to the following equation. [formula]

Test [1] deals with passive cutaneous anaphylaxis (PCA) reaction. Kind of test: Inhibitory activity against homologous PCA reaction in rats. It is filed as in vivo, male Wistar rats. As to conditions: Rattus norvegicus, oral, read-out: Inhibition rate (PCA reaction); for inhibition in vivo at 100 mg/kg: 1 hour before antigen. The method, then: (1) Inhibitory activity against homologous PCA reaction in rats
Antiserum was prepared according to I. Mota [Immunology, 7, 681(1964)]and the PCA reaction was conducted according to Maruyama et al. [Folia Pharmacologica Japonica, 74, 179(1978}].
An ovalbumin solution dissolved in physiological saline (2 mg/ml) was injected intramuscularly into both thighs of male Wistar rats weighing 200 to 260 g in a volume of 0.5 ml/100 g body weight, and pertussis vaccine (Bordetella pertussis, 2×10^10 /ml/ Chiba Serum Institute) was intraperitoneally administered at 1 ml/rat. Twelve days after sensitization, blood was taken from posterior aorta under ether anesthesia and serum was separated and stored at -80° C.
In each group, 4 male Wistar rats weighing 180 to 210 g were used. Back of the rats was shaved and reach 0.05 ml of antiserum diluted 32 times with physiological saline was injected intradermally at four sites on the back. After 48 hours, 1 ml of a mixture of ovalbumin (2 mg/ml) as an antigen and Evans blue (10 mg/ml) in the volume ratio of 1 : 1, which was dissolved in physiological saline was injected intravenously into the tail. Thirty minutes later, the rats were bled to death under ether anesthesia and the back skin of the rats was removed. The blue-dyed area formed by pigment exudation was measured and an inhibition rate (%) was calculated as compared with control according to the following equation. [formula]
A test compound suspended in a 2.5 % aqueous solution of gum arabic containing 0.2 % Tween 80 was administered orally in a volume of 0.5 m:/100 g body weight 1 hour before the injection of antigen. To the control group, only the vehicle was administered. Tranilast which was a positive control compound was administered orally 30 minutes before the injection of antigen.

The target of test [2] is T2, epidermal growth factor receptor-tyrosine kinase complex (Homo sapiens, UniProt P00533).
T2 construct: The membrane preparation was employed in the following measurement without solubilization; endogenous in cells; host or cells: A-431 (ATCC CRL1555), membrane preparation, not solubilized
Kind of test: Tyrosine kinase inhibiting activity (A-431 membrane preparation, EGF-stimulated). It is filed as biochemical. As to conditions: read-out: Tyrosine kinase inhibition rate; for inhibition at 10 µM: 10 μM in the reaction mixture; for inhibition at 1 µM: 1 μM in the reaction mixture. The method, then: Tyrosine kinase inhibiting activity of the compound of the present invention was measured referring to a method for measuring tyrosine kinase activity by G. Carpenter or by S. Cohen et al. [J. Biol. Chem., 254, 4884(1979); J. Biol. Chem., 257, 1528(1982)].
Cell line A-431 derived from human carcinoma (ATCC CRL1555) was cultured at 37° C. under the condition of 5% CO2 in Dulbecco's modified Eagle's medium (made by NISSUE PHARMACEUTICAL CO., LTD.) containing 10% by volume fetal bovine serum, 50 μg/ml of streptomycin, 50 IU/ml of penicillin G and 50 μg/ml of kanamycin. […] The membrane preparation was employed in the following measurement without solubilization.
A test compound dissolved in dimethylsulfoxide (hereinafter referred to as "DMSO") was added to a mixture of 20 mM of N-2-hydroxyethylpiperazine-N'-2-ethanesulfonic acid buffer (pH 7.4), 1 mM of MnCl2, 7.5 μg of bovine serium albumin and the membrane preparation (10 μg as protein). After incubation at 0° C. for 5 minutes, 100 ng of epidermal growth factor (hereinafter referred to as "EGF") was added thereto and the mixture was further incubated at 0° C. for 15 minutes. [γ-^32 P]ATP (3000 Ci/mmol, 0.1 μCi) was added thereto to make final volume of 70 μl. After incubation at 0° C. for 15 minutes, 50 μl of the reaction mixture was soaked into Whatman 3 MM filter paper (made by Whatman Ltd.) and immediately the reaction was stopped by an aqueous solution of 10% by weight trichloroacetic acid containing 10 mM sodium pyrophosphate. The filter paper was sufficiently washed with the same solution and then washed with ethanol, and dried. Radioactivity present in the filter paper was measured by liquid scintillation counter (A). Also, radioactivity was measured in case of the reaction without EGF (B), the reaction without the test compound (C), and the reaction without both EGF and the test compound (D) as a control.
Tyrosine kinase inhibition rate (%) was calculated by the following equation. [formula]

Test [3] concerns Nycobacterium smegmatis ATCC 607. Kind of test: Antibacterial activity (MIC) against acid-fast bacteria. As to conditions: 37° C., 40 to 42 hours. It is filed as cell-based. The protocol: As for acid-fast bacteria, after cultured in glycerol broth medium, there was prepared a bacterial suspension for inoculation containing about 10^6 of the bacteria per 1 ml of the medium. On the other hand, there were prepared some glycerol Czapek agar plating media with adding the test compounds, and thereto the bacterial suspension for inoculation was streaked.

Test [4] relates to antigen-induced airway constriction. Kind of test: Inhibitory activity against antigen-induced airway constriction in actively sensitized guinea pigs. It is filed as in vivo. As to conditions: Cavia porcellus, iv, 3 minutes before antigen inhalation, read-out: Inhibition rate (airway constriction). The protocol: (3) Inhibitory activity against antigen-induced airway constriction in actively sensitized guinea pigs
That is, the sensitized guinea pigs (5 guinea pigs/group) were provided with artificial respiration by inserting a tracheal cannula under urethane anesthesia (1.5 g/kg body weight, intraperitoneal administration), and then, gallamine at 1 mg/kg body weight was injected intravenously to stop spontaneous respiration of the guinea pigs. Inhalation of 0.5% aqueous solution of ovalbumin was conducted using a nebulizer for 1 minute to increase antigen-induced airway constriction, at the same time, airway pressure was recorded through a transducer. Test compound was administered into jugular vein (i.v.) of the guinea pig 3 minutes before the antigen inhalation or administered orally (p.o.) 2 hours before the antigen inhalation. As a positive control compound, theophylline which was a drug for anti-asthma was used. The effect of the compound was estimated by calculating the maximum value of airway constriction (%) in comparison with the control group, according to the following equation. [formula]

The test system of test [5] is antigen-induced anaphylactic shock death. Kind of test: Protecting effect against antigen-induced anaphylactic shock death in actively sensitized guinea pigs. It is filed as in vivo, male guinea pigs. As to conditions: Cavia porcellus, 1.5 h, oral, 30 minutes before antigen inhalation. The protocol: (2) Protecting effect against antigen-induced anaphylactic shock death in actively sensitized guinea pigs
Anaphylactic shock death caused by inhalation of antigen was observed according to John P. Devlin Pulmonary and Antiallergic Drugs, John Wiley & Sons, (1985)] employing actively sensitized guinea pigs.
Each 100 mg/kg of body weight ovalbumin dissolved in physiological saline was injected into gluteus and into peritoneal cavity of male guinea pigs weighing 250 to 350 g. Three days later, the animals were further injected intraperitoneally with ovalbumin (100 mg/kg body weight) to conduct booster. Those animals were employed for testing 3 to 4 weeks after the sensitization.
In each group, 4 or more actively sensitized guinea pigs were pretreated by subcutaneously injecting pyrilamine (1 mg/kg body weight) 30 minutes before antigen inhalation to suppress histamine-dependent response and propranolol (1 mg/kg body weight) to enhance the response induced by other than histamine 10 minutes before the antigen inhalation.
The animal was placed in a desiccator with a capacity of about […] and 0.5% aqueous solution of ovalbumin in the state of aerosol was inhaled with ultrasonic type nebulizer for five minutes. Anaphylactic shock death was observed and the animals survived for 90 minutes or more after antigen inhalation were estimated to be protected. All the animals of the control group died due to anaphylactic shock. The compounds of the present invention and therapeutic antiasthmatic agent (tranilast, theophylline) were administered orally 30 minutes before the antigen inhalation.

In general, inhibition refers to the percentage by which the read-out fell short of the control. By MIC is commonly meant the lowest concentration that inhibits growth of the organism. A high value points to a less susceptible organism.

≈ marks a conversion by molar mass, not a printed value.

T2 sequence (P00533 25-1210, one chain of several): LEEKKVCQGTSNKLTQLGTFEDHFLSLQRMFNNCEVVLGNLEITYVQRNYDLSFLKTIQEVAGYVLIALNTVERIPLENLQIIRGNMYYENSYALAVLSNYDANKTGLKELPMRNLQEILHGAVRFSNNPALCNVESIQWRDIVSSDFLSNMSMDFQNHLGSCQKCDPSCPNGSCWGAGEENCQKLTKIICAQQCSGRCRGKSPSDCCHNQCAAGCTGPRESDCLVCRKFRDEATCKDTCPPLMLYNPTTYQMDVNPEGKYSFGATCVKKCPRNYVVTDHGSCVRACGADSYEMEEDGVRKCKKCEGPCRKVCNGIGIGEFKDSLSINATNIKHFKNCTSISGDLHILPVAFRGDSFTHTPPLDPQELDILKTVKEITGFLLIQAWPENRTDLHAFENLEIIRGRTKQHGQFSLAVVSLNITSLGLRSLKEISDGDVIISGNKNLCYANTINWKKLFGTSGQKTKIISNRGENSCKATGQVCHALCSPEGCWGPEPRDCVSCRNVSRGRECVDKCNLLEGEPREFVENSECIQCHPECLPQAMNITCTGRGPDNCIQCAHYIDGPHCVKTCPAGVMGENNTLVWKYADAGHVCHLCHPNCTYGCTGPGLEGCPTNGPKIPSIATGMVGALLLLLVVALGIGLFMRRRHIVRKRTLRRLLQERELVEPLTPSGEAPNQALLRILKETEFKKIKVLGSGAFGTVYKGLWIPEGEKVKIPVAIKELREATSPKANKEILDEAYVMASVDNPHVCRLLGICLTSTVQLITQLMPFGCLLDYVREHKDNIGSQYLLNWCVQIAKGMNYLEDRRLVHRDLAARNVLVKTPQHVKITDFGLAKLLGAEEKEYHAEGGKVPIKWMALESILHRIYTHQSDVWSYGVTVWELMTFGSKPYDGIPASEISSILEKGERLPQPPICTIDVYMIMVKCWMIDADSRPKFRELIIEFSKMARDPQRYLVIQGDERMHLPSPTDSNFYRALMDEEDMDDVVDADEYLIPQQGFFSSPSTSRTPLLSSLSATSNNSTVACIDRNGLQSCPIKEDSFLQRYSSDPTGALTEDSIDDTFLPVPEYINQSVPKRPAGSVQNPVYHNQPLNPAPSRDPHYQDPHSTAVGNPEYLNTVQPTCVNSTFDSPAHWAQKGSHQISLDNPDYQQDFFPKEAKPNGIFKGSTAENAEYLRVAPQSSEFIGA

For the molecule `N#CC(=Cc1cc(O)c(O)c(Cc2ccccc2)c1)C(N)=O` [Compound 23], the inhibition at 10 µM on 5-lipoxygenase stood at 85%; in test [2], 60%. Also, the inhibition in vivo at 100 mg/kg in test [1] amounted to 29%.

Consider `CCCCOc1cc(C=C2SC(NCc3ccccc3)=NC2=O)cc(Cc2ccccc2)c1O` [Compound 30], for which the inhibition at 1 µM on 5-lipoxygenase turned out to be 87%; in test [2] it was 70%. The same molecule came in with an MIC in test [3] of at most 6 µg/mL.

Turning to `CC(C)c1cc(C=C2SC(Nc3ccccc3)=NC2=O)cc(C(C)C)c1O` [Compound 32], the inhibition in vivo at 2 mg/kg in test [4] (2 mg/kg) worked out at 23%. Besides, in test [1], the inhibition in vivo at 100 mg/kg came to 21%. Also, the minimal inhibitory concentration (MIC) in test [3] was at most 6 µg/mL. Moreover, the inhibition at 1 µM in test [2] was determined as 74%.

Take `CC(C)c1cc(C=C2SC(NCCc3ccccc3)=NC2=O)cc(C(C)C)c1O` [Compound 34]: in test [1], the inhibition in vivo at 100 mg/kg came out at 48%. Moreover, the minimum inhibitory concentration (MIC) in test [3] is at most 6 µg/mL. Besides, in test [2], the inhibition at 1 µM is 63%.

As for `CC(C)c1cc(C=C2SC(NCc3ccc(Cl)cc3)=NC2=O)cc(C(C)C)c1O` [Compound 36], the inhibition at 10 µM was 84% on 5-lipoxygenase and 59% in test [2]. Also, the responders at 100 mg/kg in test [5] is 25%.

As to `COc1ccc(CNC2=NC(=O)C(=Cc3cc(C(C)C)c(O)c(C(C)C)c3)S2)cc1` [Compound 38], the figures for the inhibition at 10 µM (on 5-lipoxygenase; in test [2]) were 88% and 85%, respectively. In addition, the responders at 100 mg/kg in test [5] is 25%.

As for `CC(C)c1cc(C=C2SC(NCc3ccccn3)=NC2=O)cc(C(C)C)c1O` [Compound 45], the inhibition in vivo at 1 mg/kg in test [4] was 42%. Moreover, the inhibition at 1 µM on 5-lipoxygenase was determined as 36%. The molecule also gave a minimal inhibitory concentration (MIC) in test [3] of 2 µg/mL (≈ 5.06 µM). Moreover, the inhibition at 10 µM in test [2] was 90%.

For `Cn1c(=O)c2[nH]cnc2n(C)c1=O` [theophylline, reference compound], the inhibition in vivo at 1 mg/kg in test [4] was 31%. Further, the responders at 30 mg/kg in test [5] (30 mg/kg) was 50%.

On to `COc1ccc(/C=C/C(=O)Nc2ccccc2C(=O)O)cc1OC` [tranilast, reference compound], for which, in test [1] (300 mg/kg, 30 minutes before antigen, positive control), the inhibition in vivo at 300 mg/kg came out at 40%. Further, the responders at 100 mg/kg in test [5] was 0%.
